We go through seven compounds from ChEMBL document CHEMBL1154435, “Synthesis and anti-inflammatory activity evaluation of unsymmetrical selenides” (Eur J Med Chem, 2008).

Each structure is given as a SMILES string. A value given as a limit tells only on which side of the number the result lay.

Series [1] concerns Rattus norvegicus. In words: Antiinflammatory activity against cotton pellets-induced inflammation in Wistar rat assessed as wet weight of granuloma at 10 mg/kg, po after 7 days. The format is functional.
Series [2] relates to Rattus norvegicus. In words: Antiinflammatory activity against cotton pellets-induced inflammation in Wistar rat assessed as dry weight of granuloma at 10 mg/kg, po after 7 days. The format is functional.
A short description of series [3]: Acute toxicity in po dosed mouse assessed as death within 7 days. Type of series: organism-based. The settings on record: in vivo.
In series [4] the test system is Mus musculus. In words: Safety ratio for toxicity to antiinflammatory activity in po dosed mouse. The format is functional.
In series [5] the test system is Mus musculus. Description: Acute toxicity in mouse assessed as occurrence of ataxia and respiratory problems at 600 mg/kg, po within 7 days. Type of series: organism-based. Further details: dose 600 mg/kg, route oral. The settings on record: in vivo, 168 h.
For series [6], the system named is Rattus norvegicus. In words: Antiinflammatory activity against cotton pellets-induced inflammation in Wistar rat assessed as final weight of granuloma at 10 mg/kg, po after 7 days. The format is functional.
The subject of series [7] is Rattus norvegicus. Description: Antiinflammatory activity against cotton pellets-induced inflammation in Wistar rat assessed as dry weight of granuloma at 5 mg/kg, po after 7 days. Type of series: functional.
The subject of series [8] is Rattus norvegicus. Description: Antiinflammatory activity against cotton pellets-induced inflammation in Wistar rat assessed as final weight of granuloma at 5 mg/kg, po after 7 days. Type of series: functional.
For series [9], the system named is Rattus norvegicus. Description: Antiinflammatory activity against cotton pellets-induced inflammation in Wistar rat assessed as wet weight of granuloma at 5 mg/kg, po after 7 days. The format is functional.

Turning to `C#CC[Se]c1ccccc1C(=O)O`, the Activity with Rattus norvegicus [1] was 0.353 g; in the series on Rattus norvegicus [2], 0.081 g; with Mus musculus [5] it was “Toxic”; in the series on Rattus norvegicus [6], 30.9 mg. For the same compound, the median lethal dose (LD50) at 168 h in series [3] is 600 mg/kg. In addition, in the series with Mus musculus [4], the Ratio entry is “>=60”.
In the case of `C#CC[Se]c1ccc(C(=O)NC)cc1`, the Activity with Rattus norvegicus [1] turned out to be 0.447 g; in the series on Rattus norvegicus [2], 0.096 g; with Rattus norvegicus [6], 41.3 mg. Further, the LD50 at 168 h in [3] was over 600 mg/kg. Besides, the Ratio entry with Mus musculus [4] is on record as “>=60”.
For `COc1ccc2c(c1)c(CC(=O)O)c(C)n2C(=O)c1ccc(Cl)cc1` [INDOMETHACIN], the results for the Activity in the series on Rattus norvegicus [7], with Rattus norvegicus [8] and in the series on Rattus norvegicus [9] were 0.072 g, 21.8 mg and 0.307 g, respectively. Further, in [3], the 50% lethal dose (LD50) at 168 h turned out to be 33 mg/kg. In addition, the Ratio in the series with Mus musculus [4] is on record as 3.3.
With `CNC(=O)c1ccc([Se]Cc2ccccc2)cc1`, the Activity with Rattus norvegicus [1] came to 0.414 g; with Rattus norvegicus [2], 0.089 g; in the series with Rattus norvegicus [6], 35.7 mg. In addition, the median lethal dose (LD50) at 168 h in series [3] is over 600 mg/kg. Further, in the series on Mus musculus [4], the Ratio entry was “>=60”.
In the case of `CC(C)=C[Se]c1ccccc1C(=O)O`, the figures for the Activity in the series with Rattus norvegicus [1], in the series on Rattus norvegicus [2] and in the series on Rattus norvegicus [6] were 0.406 g, 0.084 g and 32.8 mg, respectively. For the same compound, in series [3], the LD50 at 168 h was over 600 mg/kg. In addition, in the series on Mus musculus [4], the Ratio result was “>=60”.
For `CNC(=O)c1ccc([Se]C=C(C)C)cc1`, the Activity is 0.369 g in the series on Rattus norvegicus [1], 0.087 g in the series on Rattus norvegicus [2], “Toxic” with Mus musculus [5] and 33.2 mg with Rattus norvegicus [6]. Moreover, the LD50 at 168 h in series [3] was 600 mg/kg. For the same compound, in the series on Mus musculus [4], the Ratio entry was “>=60”.
As for `O=C(O)C[Se]c1ccccc1C(=O)O`, the Activity with Rattus norvegicus [1] is given as 0.378 g; in the series with Rattus norvegicus [2], 0.085 g; in the series with Rattus norvegicus [6], 33.8 mg. Further, the 50% lethal dose (LD50) at 168 h in series [3] was over 600 mg/kg. Besides, the Ratio result with Mus musculus [4] is reported as “>=60”.
